Reference: patent US20180353461A1, “USE OF CANNABINOIDS AS CERAMIDE-GENERATING ANTICANCER AGENTS IN TUMORS OF THE HEMATOPOIETIC AND LYMPHOID TISSUES” (priority 2014, published 2018)

Columns and labels:
Assay type in all cases: cell-based, human
U266 cells [1] = assay: Western blot time course of apoptotic proteins in U266 cells
Experimental: (§1) Protein analyses were performed by Western blot in several sets of assays: expression pattern of CBs-receptors in MM cell lines and primary cells, and time course after treatment with cannabinoids in MM cell lines. Time-course assays were performed at 0, 2, 6, 18 and 24 hours. Anyway, obtaining cell lysates was conducted according to a protocol adapted to phosphorylation-dependent signaling, described by Gilbert et al. (2002). Briefly, 10e7 cells per condition were harvested at indicated times, washed with iced-cold PBS and lysate in isotonic lysis buffer 30 min keeping on ice. Isotonic lysis buffer contained 2% ASB-14 (CalbioChem, San Diego, Calif., USA),1% Nonidet P-40 (Ipegal®), 137 mM NaCl, 20mM Tris-HCl pH 7.5 at 4° C. (all from Sigma-Aldrich), 2 mM Na3VO4, 20 mM NaF (New England BioLabs Inc., Ipswich, Mass., USA), 2 mM DTT (AppliChem, Darmstadt, Germany), protease inhibitor cocktail (Roche Diagnostics GmbH, Mannheim, Germany), and 10 ul Nuclease Mix (Amersham GE Healthcare, Uppsala, Sweden). After lysis, samples were centrifuged at 13,000×g for 5 min at 4° C., and supernatants collected. Protein concentration in samples was determined by Pierce® Microplate BCA Protein Assay kit-Reducing Agent Compatible (Thermo Fisher Scientific). Before loading the samples in the gel, they were diluted in loading sample buffer (0.125 M Tris-HCl pH 6.8, 4% SDS, 20% glycerol, 0.02% Bromophenol Blue, 200 mM DTT) and the mixture was heated at 70° C. for 5 min in a thermoblock (LabNet International, N.J., USA).
Samples (15-25 ug/lane) were subjected to SDS/PAGE in pre-cast polyacrylamide gels AnykD (Bio-Rad Laboratories, Hercules, CA, USA) under reducing and denaturing conditions. Electrophoretic run was performed at a constant current of 15 mA per gel in a Mini-Protean® Tetra Cell (Bio-Rad Laboratories). Once proteins were separated by electrophoresis, were transferred onto PVDF membranes using Trans-Blot® Turbo™ System (Bio-Rad Laboratories). Electrotransference was conducted at constant amperage of 1.2 mA and at up to 25 V of voltage. The blotted membranes were then blocked with 2% bovine serum albumin [(BSA), Santa Cruz Biotechnology] in Tween-Tris buffer saline (TTBS) for 30 min with gentle agitation, and incubated overnight at 4° C. with corresponding primary antibody in TTBS. After twice washing with TTBS, membranes were incubated for 1-2 h at room temperature with suitable conjugated-HRP secondary antibody, and subjected to chemiluminescence detection using Western Blotting Luminol Reagent (Santa Cruz Biotechnology). […]
The antiproliferative effect of cannabinoids is mediated by apoptotic mechanisms. […] Next, we evaluated Casp-3 activation using an antibody that recognizes the active forms of Casp-3, this is, the 17 kDa- and 12 kDa-cleaved forms. […]

U266 cells [2] = assay: Western blot of signaling pathways (MAPKs, Akt) in U266 cells
Experimental: as §1
Samples (15-25 ug/lane) were subjected to SDS/PAGE in pre-cast polyacrylamide gels AnykD (Bio-Rad Laboratories, Hercules, CA, USA) under reducing and denaturing conditions. Electrophoretic run was performed at a constant current of 15 mA per gel in a Mini-Protean® Tetra Cell (Bio-Rad Laboratories). Once proteins were separated by electrophoresis, were transferred onto PVDF membranes using Trans-Blot® Turbo™ System (Bio-Rad Laboratories). Electrotransference was conducted at constant amperage of 1.2 mA and at up to 25 V of voltage. The blotted membranes were then blocked with 2% bovine serum albumin [(BSA), Santa Cruz Biotechnology] in Tween-Tris buffer saline (TTBS) for 30 min with gentle agitation, and incubated overnight at 4° C. with corresponding primary antibody in TTBS. After twice washing with TTBS, membranes were incubated for 1-2 h at room temperature with suitable conjugated-HRP secondary antibody, and subjected to chemiluminescence detection using Western Blotting Luminol Reagent (Santa Cruz Biotechnology). Loading controls were carried out with an anti-beta-actin and anti-beta-tubulin antibodies (Sigma-Aldrich). Blots were captured using a digital imaging system ImageQuant LAS 4000 (Amersham GE Healthcare) and transferred to a digital image processing software to analyze (Adobe Photoshop CS2, version 9.0., Adobe Systems Inc., San Jose, Calif.).
Signaling pathways targeted by cannabinoids in myelomatous cells. To get further insights into the mechanisms of cannabinoids-induced apoptosis, we assessed the expression profile of phosphorylated-JNK, -Erk1/2, -p38 MAPK and -Akt by Western blot.

HL60 cells = assay: SPT expression, ceramide staining and SPT inhibition in HL60 cells
Experimental: Extracted proteins (15-25 ug/well) were separated by sodium dodecyl sulfate-polyacrylamide gel electrophoresis (SDS/PAGE) in pre-cast polyacrylamide gels AnykD (Bio-Rad Laboratories, Hercules, Calif., USA) under reducing and denaturing conditions. Electrophoretic run was performed at a constant current of 15 mA per gel in a Mini-Protean® Tetra Cell (Bio-Rad Laboratories) and were electrophoretically transferred onto PVDF membranes using Trans-Blot® Turbo™ System (Bio-Rad Laboratories). Blocking was performed with 2% bovine serum albumin [(BSA), Santa Cruz Biotechnology] in Tween-Tris buffer saline (TTBS). Membranes were incubated overnight at 4° C. with corresponding primary antibody in TTBS.
Cells were grown on glass cover slips (Menzel-Glaser, Thermo Fisher Scientific) in the presence or absence of WIN 55,212-2. The cover slips were then washed twice in phosphate-buffered saline (PBS), and the cells were fixed in cold 4% paraformaldehyde for 10 min, treated with sodium borohydride and, permeabilized in 0.02% Triton X-100 in PBS with 10% normal donkey serum for blocking. Cell nuclei were stained with diamidino-2-phenylindole [(DAPI), Pierce, Thermo Fisher Scientific)]. Then, cells were incubated with the anti-CB1 or anti-CB2 receptor antibodies or anti-ceramide in blocking buffer overnight at 4° C. in a humid chamber (Simport, Beloeil, QC, Canada). After washing with PBS, samples were further incubated for 90 min with Alexa 647- or Alexa 488-conjugated donkey secondary antibody.
After final washing in PBS, the cover slips were dried and mounted on slides using Fluoromount Aqueous Mounting Medium (Sigma-Aldrich). Changes in the protein expression were visualized by fluorescence microscopy using a specific excitation for each antibody. Digital images were acquired with CellSens Dimension Software (Olympus) and manipulated with Photoshop CS2 Software (Adobe Systems Inc). There was no labeling when the primary antibody was omitted (data not shown).
Additionally, de novo synthesis of ceramides also contribute to the apoptotic process triggered by cannabinoids in AML. We examined whether ceramides participate in the cannabinoid-induced apoptosis in leukemic cells. To this end, we analyzed the expression of serine palmitoyltransferase (SPT), the enzyme that catalyses the rate-limiting step of ceramide synthesis de novo. […] To ensure that this up-regulation of SPT entails an increased of ceramide synthesis, we examined the expression of ceramide by immunohistochemistry. […] Furthermore, to strengthen the engagement of the ceramide in cannabinoid-induced apoptosis, we analyzed the cannabinoid-induce apoptosis after inhibition of ceramide synthesis with Myoricin, a selective SPT inhibitor.

For CS(=O)(=O)O.Cc1c(C(=O)c2cccc3ccccc23)c2cccc3c2n1[C@H](CN1CCOCC1)CO3 [WIN-55, (R)-(+)-[2,3-dihydro-5-methyl-3-(4-morpholinylmethyl)-pyrrolo-[1,2,3]-1,4-benzoxazin-6-yl]-1-naphthalenylmethanone mesylate], the “time after exposure at which the 89 kDa PARP fragment became detectable” value (U266 cells [1]; U266) was 2 h, the “expression of the two active-cleaved forms of Casp-3 (17 kDa and 12 kDa)” value (U266 cells [1]; U266, time course) was “increased over time” and the “89 kDa fragment of PARP” value (U266 cells [1]; U266, time course 0-24 h) was “increase”. The “full-length PARP” value (U266 cells [1]; U266, time course 0-24 h) was “decrease”, the “p-Akt at early time points” value (U266 cells [2]; U266) was “significant up-regulation” and the “p-Akt expression levels at later times” value (U266 cells [2]; U266) was “sharp decline”. For the same molecule, the “total Akt-expression, first 6 hours of exposure” value (U266 cells [2]; U266) was “remained unchanged”, the p-JNK (U266 cells [2]; U266, WIN-55 50 uM) was “slightly up-regulated” and the “up-regulation of p-Erk1/2, compared with the slight up-regulation of p-JNK” value (U266 cells [2]; U266, WIN-55 50 uM) was “to a lesser extent”. The “p-p38 MAPK” value (U266 cells [2]; U266, time-dependent) was “moderately downregulated”, the “SPT expression level in leukemic cells” value (HL60 cells; HL60) was “enhanced” and the “SPT, 2 h after exposure” value (HL60 cells; HL60) was “moderate increase”. The “ceramide by immunohistochemistry, compared to untreated cells” value (HL60 cells; HL60, 50 uM, 18 hours) was “remarkable increase”.
